In ChEMBL document CHEMBL4431396, “Novel Autotaxin Inhibitors for the Treatment of Osteoarthritis Pain: Lead Optimization via Structure-Based Drug Design” (ACS Med Chem Lett, 2016):

Assays:
Assay type in all cases: ADME, organism-based
[1] = Half life in rat at 1 mg/kg, iv; conditions: in vivo
[2] = Oral bioavailability in rat at 10 mg/kg administered as single dose; conditions: in vivo
[3] = Volume of distribution at steady state in rat at 1 mg/kg, iv; conditions: in vivo, read-out: Vdss
[4] = AUC in rat at 10 mg/kg, po administered as single dose; conditions: in vivo
[5] = Cmax in rat at 10 mg/kg, po administered as single dose; set-up: dose 10 mg/kg, route oral; conditions: in vivo
Rattus norvegicus = experiment: Time duration for plasma concentration stays above in vitro IC80 level in rat at 10 mg/kg, po administered as single dose; conditions: in vivo

half-life [1]: 1.14 h
bioavailability [2]: 23%
Vd [3]: 1.4 L/kg
AUC [4]: 3.44 µM·h
Cmax [5]: 660 nM
Time (Rattus norvegicus): > 12 h
SMILES: O=C(COCCc1cnn[nH]1)N1Cc2cnc(NC3Cc4ccccc4C3)nc2C1
